Experiments:
breast cancer cells = assay: hypoxia induced breast cancer cell migration in vitro; format: cell-based
[1] = system: angiogenesis in Matrigel plugs; assay: Matrigel plug angiogenesis assay in vivo; set-up: species or system Balb C nu/nu mice
Experimental: The effect of AEPI-1 on angiogenesis was further investigated in vivo using a Matrigel plug assay. Matrigel containing FGF-2 was injected subcutaneously into Balb C nu/nu mice.
The effect of AEPI-1 on angiogenesis induced by cancer cells was then investigated by including human breast cancer cells (MDA-MB-231 cells) in the Matrigel plugs. The cancer cells produced a spectrum of angiogenic factors and induced robust angiogenic vessel growth (FIG. 5C).

HUVEC [2] = assay: endothelial cell invasion assay under hypoxia; format: cell-based, human; conditions: hypoxic conditions
Experimental: Cell invasion and mobility assays. Cell migration and invasion assays were performed as described with modifications (Albini et al., 1987). Stock solutions (15 mg/ml) of Matrigel basement membrane matrix (Becton Dickinson, Bedford, Mass.) were stored at −80° C. in 100 μl aliquots. After thawing on ice, the stock was diluted 1:50 with cold serum-free culture media and immediately applied to each membrane insert (8 μm pore) that formed the upper chambers of the multi-well invasion assay plate. The Matrigel was incubated overnight in a sterile laminar tissue culture hood. The membranes were hydrated for 2 hours with 250 μl of serum-free medium and excess medium was removed by aspiration. Medium containing 10% FBS was added to the bottom of each well. A suspension of 10^5 cells in 150 μl of serum-free medium was added to the upper chamber and incubated for 12 hours at 37° C., 5% CO2. At the indicated times, the membrane inserts were removed from the plate and the non-invading cells were removed from the upper surface. Membrane associated cells were stained with 0.09% crystal violet for 30 minutes and washed twice with PBS. The invading cells were counted microscopically. […]
The effect of AEPI-1 on endothelial cell function was assessed in vitro in a matrigel endothelial cell tube formation assay. […]

MDA-MB-231 cells = assay: MDA-MB-231 human mammary carcinoma model; format: in vivo, Balb C nu/nu mice; conditions: two weeks after tumor cell implantation
Experimental: The effect of AEPI-1 on tumor growth and invasion was then evaluated in a human mammary carcinoma model established in Balb C nu/nu mice. The MDA-MB-231 cells grew aggressively in vivo and formed a tumor that was similar to a human infiltrating ductal carcinoma with apparent glandular differentiation. The tumor locally invaded surrounding tissues and skeletal muscles.

[3] = system: mouse aorta vessel sprouts; assay: mouse aortic sprouting assay; format: cell-based
Experimental: The effects of AEPI-1 on angiogenesis were further evaluated in mouse aortic sprouting assays. First, AEPI-1 was added to the beginning of the experiment to determine its effect on initiation of vessel sprouts (FIG. 5A). […] In the second assay, AEPI-1 was added at the third day after aortic sprouts were already formed (FIG. 5B), to ascertain whether asparaginyl endopeptidase activity was required for continued extension of vessel growth.

[4] = cytotoxicity of AEPI-1 in 293 cells expressing legumain; format: cell-based; conditions: human, 293 cells recombinantly expressing legumain; 293 cells that recombinantly expressed legumain
Experimental: To further evaluate the role of asparaginyl endopeptidases in angiogenesis, four asparaginyl endopeptidases inhibitors (AEPI) were tested using recombinant legumain in an amidolytic activity assay with fluorescent substrate. FIG. 4A graphically illustrates the effects that AEPI-1 to AEPI-4 (also referred to as legumain inhibitors LI-1 to LI-4) have on asparaginyl endopeptidase activity. […] No apparent cytotoxicity was observed until almost 100 μM AEPI-1 was used in these assays (FIG. 4B).

legumain = molecular target: T1, legumain (Mus musculus, UniProt O89017); assay: legumain activity in tissues after systemic administration of AEPI-1; format: in vivo, mice
T1 construct: from tissue
T1 sequence (O89017 18-325): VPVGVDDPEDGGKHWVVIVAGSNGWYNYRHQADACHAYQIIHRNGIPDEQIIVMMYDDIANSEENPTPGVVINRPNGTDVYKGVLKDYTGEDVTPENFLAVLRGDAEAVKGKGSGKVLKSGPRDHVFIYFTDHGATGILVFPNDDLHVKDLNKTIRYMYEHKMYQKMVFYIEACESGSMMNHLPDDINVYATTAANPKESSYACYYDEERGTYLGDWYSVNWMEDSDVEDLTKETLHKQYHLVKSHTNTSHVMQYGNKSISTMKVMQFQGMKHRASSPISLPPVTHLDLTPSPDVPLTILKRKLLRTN

[5] = molecular target: legumain cleavage of caspase 9 (Homo sapiens, UniProt Q99538); assay: caspase 9 activity after legumain cleavage; format: biochemical
Chain of legumain cleavage of caspase 9 (Q99538 18-323, species assumed): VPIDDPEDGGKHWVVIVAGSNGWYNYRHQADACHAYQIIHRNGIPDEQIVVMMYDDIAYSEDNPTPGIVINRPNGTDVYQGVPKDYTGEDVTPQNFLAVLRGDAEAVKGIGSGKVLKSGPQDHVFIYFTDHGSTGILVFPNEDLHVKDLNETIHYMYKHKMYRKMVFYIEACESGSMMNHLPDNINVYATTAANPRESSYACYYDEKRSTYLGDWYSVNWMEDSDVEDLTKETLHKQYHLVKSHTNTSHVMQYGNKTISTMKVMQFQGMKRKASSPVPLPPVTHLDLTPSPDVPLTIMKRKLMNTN
From the text: Legumain catalytically inactivates caspase 9. In addition to suppression of cathepsin B, legumain efficiently inactivates caspase 9 and depletes the cell of pro-caspase 9 (FIG. 20A). […] Loss of pro-caspase 9 led to reduced caspase 3 activation in a reconstituted apoptosome system (FIG. 20D), which was further confirmed by detection of reduced caspase 3 activity (FIG. 20E). These observations indicate that asparaginyl endopeptidases play a critical role in cell survival and tumorigenesis.

HUVEC [6] = assay: matrigel endothelial cell tube formation assay; format: cell-based, human
Experimental: The effect of AEPI-1 on endothelial cell function was assessed in vitro in a matrigel endothelial cell tube formation assay. […] In contrast, addition of recombinant legumain dramatically promoted and accelerated tube formation (FIG. 4D). HUVEC tube formation was observed as early as 5 hours after assay initiation when legumain was added. Under normal conditions 24 hours were required for the vascular tubes to form.

4T1 breast cells = assay: 4T1 experimental lung metastasis model; format: in vivo, BALB/c mice; conditions: AEPI-1 100 μg i.p. daily for two weeks
Experimental: A lung metastasis model was induced experimentally by injecting a cell suspension of 4T1 breast cells (1×10^5) suspended in 0.1 ml serum free medium into the tail vein of six-week-old female BALB/c mice. The mice were treated with 100-μl intraperitoneal injections of either PBS alone (control group) or LEG-3 (100 μg/100 μl) daily for two weeks.
4T1 Lung Experimental Metastasis was generated by suspending 4T1 cells (1×10^5) in 0.1 ml serum-free medium and injecting these cells into the tail vein of mice under the anesthesia. Treatment involved 100 μl intraperitoneal injection of either saline alone (control group) or AEPI-1 (treatment group). The AEPI-1 treatment group was given 100 μg AEPI-1 in saline (100 ul) by intraperitoneal injection daily for two weeks. All mice were euthanized by CO2 and lungs were removed, weighted and fixed in the Bouin's solution. Lung metastases were counted by anatomy microscope.

Which results are given for CCOC(=O)C1OC1C(=O)N(CC(N)=O)NC(=O)[C@H](C)NC(=O)[C@H](C)NC(=O)OCc1ccccc1 (stereo partly drawn) [AEPI-1, Cbz-Ala-Ala-AzaAsn-(S,S)-EPCOOEt]?
hypoxia induced breast cancer cell migration (breast cancer cells): inhibited; cancer cell-induced angiogenesis in the plug ([1]; MDA-MB-231 cells in the Matrigel plugs): essentially completely inhibited; FGF-2 induced vessel formation in the plug ([1]; Matrigel containing FGF-2 s.c., gross appearance, hemoglobin content, histology): significantly inhibited; hypoxia induced endothelial cell invasion (HUVEC [2]): inhibited; tumor differentiation into a more invasive form (MDA-MB-231 cells): blocked; tumor growth (MDA-MB-231 cells): completely suppressed tumor growth; FGF-2 induced vessel sprouts (initiation) ([3]; AEPI-1 added at the beginning of the experiment): inhibited FGF-2 induced vessel sprouts in a dose dependent manner; extension of established vascular outgrowth ([3]; AEPI-1 added at the third day after aortic sprouts were formed): significantly reduced; CC50 [4]: 430 µM; cell permeability (legumain; inferred from tumor vs kidney legumain activity): substantially impermeable to cells; legumain activity in 4T1 tumors (legumain; systemic administration): inhibited legumain activity in 4T1 tumors; legumain activity in kidney (legumain; systemic administration): does not affect; loss of caspase 9 activity caused by legumain cleavage [5]: inhibited; concentration at which inhibition of tube formation was apparent (HUVEC [6]; HUVEC, matrigel): 100 nM; concentration at which tube formation was completely inhibited (HUVEC [6]; HUVEC, matrigel): 600 nM; hypoxia induced tube formation (HUVEC [6]; hypoxic conditions): inhibited; HUVEC tube formation (HUVEC [6]; matrigel, normal conditions): suppressed HUVEC tube formation in a dose dependent manner; experimental lung metastasis (4T1 breast cells): inhibited experimental lung metastasis
